Results on 15 compounds are retold here after patent publication EP3290412A1, “HIV-1 NUCLEOCAPSID INHIBITORS” (Università degli Studi di Siena, priority 2016, dated 2018).

The structures appear in SMILES notation.

One assay deals with NC(11-55) (Human immunodeficiency virus type 1, UniProt P12493). The assay is described as follows: NC inhibition assay (NC-induced cTAR DNA destabilization, fluorescence). It counts as biochemical, HIV-1. The following applies: for inhibition at 100 µM: single point screening, positive = >25% inhibition at 100µM. The text has this: The NC inhibition assay is based on the nucleic acid chaperone activity of the NC protein. NC destabilizes the secondary structure of cTAR DNA, the complementary sequence of the transactivation response element, which is involved in minus-strand DNA transfer during reverse transcription. In the assay, the cTAR sequence from the HIV-1 Mal strain (Bernacchi et al, J Mol Biol, 2002) is labeled with a dye (Alexa488 fluorophore) and a quencher 4-(4'-dimethylaminophenylazo)benzoic acid (Dabcyl) at its 5' and 3' ends, respectively. In the absence of destabilization, the close proximity of both cTAR ends results in a strong fluorescence quenching of the dye emission by the Dabcyl group. NC(11-55) added to cTAR at a ratio of 10 NC/cTAR melts the bottom of the cTAR stem, which increases the distance between the dye and the quencher and as a result increases the dye fluorescence signal [Shvadchak et al, (2009) Identification by high throughput screening of small compounds inhibiting the nucleic acid destabilization activity of the HIV-1 nucleocapsid protein. Biochimie, 916-923]. NCIs are expected to prevent the NC-induced destabilization of cTAR and thus reverse the NC-induced increase in the fluorescence of the labeled cTAR. The activity of the inhibitor is thus evaluated from the ratio of the fluorescence intensity observed in the presence of NC with the molecule to the one in the absence of the compound.
The doubly labelled cTAR DNA oligonucleotides (55nt) were synthesised and purified by IBA GmbH Nucleic Acids Product Supply (Göttingen, Germany). Extinction coefficient at 260 nm of 5.73 x 10^5 M^-1 cm^-1 was used to determine the concentration of cTAR.
The NC(11-55) peptide (Avilov et al, Antimicrob Agents Chemother, 2012) was synthesized by solid-phase peptide synthesis on a 433A synthesizer (ABI, Foster City, CA) as previously described [De Rocquigny H, (1991) First large scale chemical synthesis of the 72 amino acid HIV-1 nucleocapsid protein NCp7 in an active form. Biochem Biophys Res Commun., 1010-1018]. The peptide was stored lyophilized and was resuspended in water before use. The concentration of peptide was determined by using an extinction coefficient of 5.7 x 10^3 M^-1 cm^-1 at 280 nm. Next, 2.5 molar equivalents of ZnSO4 were added and pH was raised to its final value by adding buffer.
All experiments were performed at 20 °C in 25 mM Tris-HCl (pH 7.5), 30 mM NaCl, and 0.2 mM MgCl2. To evaluate the inhibition activity of compounds on NC-induced cTAR destabilization, cTAR DNA (0.1 µM) was preincubated with 1 µM NC(11-55) (molar ratio NC:cTAR = 10:1) for 15 min at room temperature before addition of compound. For single point screening, all compounds were tested at three final concentrations: 1 µM, 10 µM and 100 µM. For the IC50 determination, inhibition of NC-induced cTAR melting was monitored through addition of increasing concentrations of the selected molecules to the pre-formed NC(11-55)-cTAR complex. After the addition of compound, the mixture was incubated for 15 min at room temperature before the reading. The fluorescence signal was recorded with a plate reader Xenius (SAFAS Monaco) or Fluoromax 3 spectrofluorometer (Horiba Jobin-Yvon), and the excitation and emission wavelengths were 480 and 520 nm, respectively. The spectra were corrected for dilution, buffer fluorescence and screening effect (when it was required). In order to check the occurrence of aggregation, we performed additional reading of absorption with the plate reader Xenius (SAFAS Monaco) or Cary 4000 spectrophotometer (Agilent). […]

Assay [1] deals with T1, full length (1-55) HIV-1 NCp7 (Human immunodeficiency virus type 1 group M subtype B, UniProt P12493).
T1 construct: recombinant full length (1-55) HIV-1 NCp7 proteins; made in house
The assay is described as follows: Electromobility Shift Assay (EMSA), competition for ssDNA binding. The note with it: NCp7 300 nM, M13mp18 ssDNA; positive = >25% inhibition at 100µM. The text has this:
The assay used a recombinant full length (1-55) HIV-1 NCp7 proteins based on the NL4-3 sequence (GenBank accession number AF324493). The protein was expressed and purified as described in [Carteau, S., Gorelick, R. J. & Bushman, F. D. Coupled integration of human immunodeficiency virus type 1 cDNA ends by purified integrase in vitro: stimulation by the viral nucleocapsid protein. Journal of virology 73, 6670-6679 (1999)].
Competition for single-stranded (ss) DNA binding was realized by mixing 1 µL of serial dilutions of NC inhibitors (diluted in DMSO) with 44 µL of NCp7 (300 nM) in a reaction buffer (20 mM Tris-HCl pH 7.4, 2 mM MgCl2, 100 mM NaCl, 1 mM DTT). 5 µL of a 10 ng/µL (4 nM) solution of M13mp18 ssDNA (BayouBiolabs) were then added and the tubes were incubated for 25 minutes at 37 °C. The reaction was terminated by chilling the tubes on ice followed by the addition of 5 µL of a loading buffer (30% glycerol, 0.01% xylene cyanol, 10 mM Tris-HCl pH 7.4). Samples were then resolved on 25 cm-long, 1% (w/v) agarose gels (SeaKem LE Agarose, Lonza) in 0.5x TBE. Gels were run in a Sub-Cell GT cuvette (BioRad) for 18 h at room temperature at 3 V/cm, stained with SybrGold (Molecular Probes) and scanned for fluorescence using a Typhoon 8600 (GE Healthcare). The experiments were performed in triplicate. Competition efficiency was realized by measuring the relative distance in pixels between the unbound ssDNA control, the NCp7-bound ssDNA control and the bound ssDNA for each points of the titration with the ImageQuant software. The IC50 was estimated as the NC inhibitors concentrations for which the bound ssDNA migrated at 50% of the distance separating the bound from the unbound ssDNA.

One may read the IC50 as the concentration at which inhibition is half-maximal. A word on the inhibition: it is the share of the control response that was lost under treatment. A lower inhibition goes with a weak effect. Consider `CC1(C)CCC(NC(=O)c2nc(-c3ccccn3)nc(O)c2O)CC1` [Compound 58, N-(4,4-dimethylcyclohexyl)-5,6-dihydroxy-2-(pyridin-2-yl)pyrimidine-4-carboxamide], for which, on NC(11-55), inhibition was half-maximal at 23 µM (IC50) and the inhibition at 100 µM is over 25%. In addition, the EMSA screening results in assay [1] was “Positive (A compound showing >25% inhibition when tested at 100µM concentration is considered as "positive")”.

As for `C[C@@H](NC(=O)c1nc(-c2cccc(C(=O)OCc3ccccc3)n2)nc(O)c1O)C1CCCCC1` [Compound 54, benzyl (R)-6-(4-((1-cyclohexylethyl)carbamoyl)-5,6-dihydroxypyrimidin-2-yl)picolinate], the inhibition at 100 µM against NC(11-55) was over 25%. Further, in assay [1], the EMSA screening results is “Positive (A compound showing >25% inhibition when tested at 100µM concentration is considered as "positive")”.

The compound `Cc1ccc(-c2nc(O)c(O)c(C(=O)N[C@H](C)C3CCCCC3)n2)nc1C` [Compound 67, (R)-N-(1-cyclohexylethyl)-2-(,5,6-dimethylpyridin-2-yl)-5,6-dihydroxypyrimidine-4-carboxamide] showed an inhibition at 100 µM on NC(11-55) of over 25%. Also, the EMSA screening results in assay [1] was “Positive (A compound showing >25% inhibition when tested at 100µM concentration is considered as "positive")”.

For `C[C@@H](NC(=O)c1nc(-c2cc(C(=O)OCc3ccccc3)ccn2)nc(O)c1O)C1CCCCC1` [Compound 46, benzyl (R)-2-(4-((1-cyclohexylethyl)carbamoyl)-5,6-dihydroxypyrimidin-2-yl)isonicotinate], at NC(11-55), half-maximal inhibition (IC50) required 10 µM and the inhibition at 100 µM is over 25%. Also, in assay [1], the EMSA screening results was “Positive (A compound showing >25% inhibition when tested at 100µM concentration is considered as "positive")”.

Turning to `C[C@@H](NC(=O)c1nc(-c2ccc(C(=O)NCc3ccccc3)cn2)nc(O)c1O)C1CCCCC1` [Compound 50, (R)-2-(5-(benzylcarbamoyl)pyridin-2-yl)-N(1-cyclohexylethyl)-5,6-dihydroxypyrimidine-4-carboxamide], at NC(11-55), the midpoint of inhibition, the IC50, lay at 5 µM and the inhibition at 100 µM was over 25%. Besides, the EMSA screening results in assay [1] is on record as “Positive (A compound showing >25% inhibition when tested at 100µM concentration is considered as "positive")”.

On to `O=C(NCCC1CCCC1)c1nc(-c2ccccn2)nc(O)c1O` [Compound 43, N-(2-cyclopentylethyl)-5,6-dihydroxy-2-(pyridin-2-yl)pyrimidine-4-carboxamide], for which the inhibition at 100 µM against NC(11-55) is over 25%. The EMSA screening results in assay [1] is reported as “Positive (A compound showing >25% inhibition when tested at 100µM concentration is considered as "positive")”.

Turning to `COc1ccc2nc(-c3nc(O)c(O)c(C(=O)N[C@H](C)C4CCCCC4)n3)ccc2c1` [Compound 66, (R)-N-(1-cyclohexylethyl)-5,6-dihydroxy-2-(6-methoxyquinolin-2-yl)pyrimidine-4-carboxamide], on NC(11-55), half-maximal inhibition (IC50) was put at 8 µM and the inhibition at 100 µM is over 25%. In addition, the EMSA screening results in assay [1] is given as “Positive (A compound showing >25% inhibition when tested at 100µM concentration is considered as "positive")”.

The compound `Cc1ccc(-c2nc(O)c(O)c(C(=O)N[C@H](C)C3CCCCC3)n2)nc1` [Compound 41, (R)-N-(1-cyclohexylethyl)-5,6-dihydroxy-2-(5-methylpyridin-2-yl)pyrimidine-4-carboxamide] returned an inhibition at 100 µM against NC(11-55) of over 25%. For the same compound, the EMSA screening results in assay [1] is listed as “Positive (A compound showing >25% inhibition when tested at 100µM concentration is considered as "positive")”.

Take `O=C(OC1CCCCC1)c1nc(-c2ccccn2)nc(O)c1O` [Compound 13, cyclohexyl 5,6-dihydroxy-2-(pyridin-2-yl)pyrimidine-4-carboxylate]: at NC(11-55), the IC50 was 237 µM and the inhibition at 100 µM is over 25%. In addition, the EMSA screening results in assay [1] was “Negative”.

Turning to `Cc1nnc(C(=O)NC(C)(C)c2nc(C(=O)NCc3ccc(F)cc3)c(O)c(=O)n2C)o1` [Raltegravir™, Raltegravir, reference compound], the “HIV-1 nucleocapsid inhibition (result in words)” value at NC(11-55) (same experimental settings as the compounds of the invention) is “inactive”.

Consider `CC1CCC(NC(=O)c2nc(-c3ccccn3)nc(O)c2O)CC1` (stereo not drawn) [Compound 56, 5,6-dihydroxy-N-(4-methylcyclohexyl)-2-(pyridin-2-yl)pyrimidine-4-carboxamide], for which, at NC(11-55), the IC50 was determined as 35 µM and the inhibition at 100 µM is over 25%. Also, the EMSA screening results in assay [1] is listed as “Positive (A compound showing >25% inhibition when tested at 100µM concentration is considered as "positive")”.

On to `C[C@@H](NC(=O)c1nc(-c2ccc(C(N)=O)cn2)nc(O)c1O)C1CCCCC1` [Compound 51, (R)-2-(5-carbamoylpyridin-2-yl)-N-(1-cyclohexylethyl)-5,6-dihydroxypyrimidine-4-carboxamide], for which, on NC(11-55), the IC50 was 10 µM and the inhibition at 100 µM was over 25%. Further, in assay [1], the EMSA screening results is listed as “Negative”.

On NC(11-55), `CC1CCCC(NC(=O)c2nc(-c3ccccn3)nc(O)c2O)C1` (stereo not drawn) [Compound 57, 5,6-dihydroxy-N-(3-methylcyclohexyl)-2-(pyridin-2-yl)pyrimidine-4-carboxamide] yielded an IC50 of 35.5 µM and an inhibition at 100 µM of over 25%. Further, the EMSA screening results in assay [1] is “Positive (A compound showing >25% inhibition when tested at 100µM concentration is considered as "positive")”.

At NC(11-55), `C[C@H](NC(=O)c1nc(-c2cc(C(F)(F)F)ccn2)nc(O)c1O)C1CCCCC1` [Compound 52, (S)-N-(1-cyclohexylethyl)-5,6-dihydroxy-2-(4-(trifluoromethyl)pyridin-2-yl)pyrimidine-4-carboxamide] showed an IC50 of 26.5 µM and an inhibition at 100 µM of over 25%. Besides, the EMSA screening results in assay [1] is reported as “Positive (A compound showing >25% inhibition when tested at 100µM concentration is considered as "positive")”.

At NC(11-55), `C[C@@H](NC(=O)c1nc(-c2nc3ccccc3[nH]2)nc(O)c1O)C1CCCCC1` [Compound 29, (R)-2-(1H-benzo[d]imidazol-2-yl)-N-(1-cyclohexylethyl)-5,6-dihydroxypyrimidine-4-carboxamide] showed an IC50 of 2.5 µM and an inhibition at 100 µM of over 25%. Also, the EMSA screening results in assay [1] is listed as “Positive (A compound showing >25% inhibition when tested at 100µM concentration is considered as "positive")”.
